Measurements taken from US7737120B2 (Aicuris GmbH & Co. KG, priority 2004, dated 2010).
Entries after “also recorded” stand apart in the source; their conditions may differ.

Experiments:
[1] = system: Gram-positive aerobic and anaerobic bacteria; details: statement in words, background section; cited from earlier work
[2] = system: pepsin, trypsin, chymotrypsin and mucosal peptidase; details: cited from earlier work
pepsin = assay: pepsin; details: cited from earlier work
[3] = the buffer used (enzymatic digestion experiments)
papain = papain (1:50) in cleavage buffer (0.1 M sodium phosphate/10 mM cysteine, 2 mM EDTA pH 6.5) with methanol; details: 37° C., up to 24 h
chymotrypsin [4] = assay: chymotrypsin (1:50) in cleavage buffer (0.1 M ammonium hydrogencarbonate/0.5 M urea pH 8) with methanol; details: 37° C., up to 24 h
bromelain = bromelain (1:50) in cleavage buffer (0.1 M sodium phosphate, 10 mM cysteine, 2 mM EDTA pH 6.5) with methanol; details: 37° C., up to 24 h
chymotrypsin [5] = assay: preparative cleavage, chymotrypsin (1:25) in cleavage buffer (0.1 M ammonium hydrogencarbonate/0.5 M urea pH 8) with methanol; details: 37° C., up to about 70 min
subtilisin = subtilisin (1:50) in cleavage buffer (0.1 M ammonium hydrogencarbonate/0.5 M urea pH 8) with methanol; details: 37° C., up to 24 h
thermolysin [6] = assay: thermolysin (1:50) in cleavage buffer (0.1 M ammonium hydrogencarbonate/0.5 M urea pH 8) with methanol; details: 37° C., up to 24 h
proteinase K = proteinase K (1:50) in cleavage buffer (0.1 M sodium tetraborate pH 9) with methanol; details: 37° C., up to 24 h
thermolysin [7] = assay: thermolysin (1:50) in cleavage buffer (0.1 M tris(hydroxymethyl)aminomethane/5 mM calcium chloride pH 7.45) with methanol; details: 37° C., up to 24 h

Substance	activity against Gram-positive aerobic and anaerobic bacteria [1]	enzymatic digestion [2]	not cleaved (pepsin)	fragment found [3]	fragment found (papain)	fragment found (chymotrypsin [4])	fragment found (bromelain)	fragment found (chymotrypsin [5])	fragment found (subtilisin)	fragment found (thermolysin [6])	fragment found (proteinase K)	fragment found (thermolysin [7])
D-Leucyl-N-1-{(3S,6S,12S,15S,18R,21S,24S,27S,28R)-6-[(1S)-2-amino-1-hydroxy-2-oxoethyl-]18-(3-{[amino(imino)methyl]amino}propyl)-12-[(1S)-1-hydroxyethyl]-3-(hydroxymethyl)-24-[(1R)-1-hydroxy-2-methylpropyl]-21-isobutyl-15-[(1S)-1-methylpropyl]-2,5,8,11,14,17,20,23,26-nonaoxo-28-phenyl-1-oxa-4,7,10,13,16,19,22,25-octaazacyclo-octacosan-27-yl}-L-leucinamide Bistrifluoroacetate [Lysobactin]	strong activity	no (such as in the case of pepsin, for example) or only inadequate enzymatic digestion										
D-Leucyl-L-leucyl-[(3R)-3-hydroxy-L-phenylalanyl)]-[(3R)-3-hydroxy-L-leucyl]-L-leucyl-D-arginyl-L-isoleucyl-L-allothreonyl-glycyl-[(3S)-3-hydroxy-L-asparaginyl]-L-serine-C1^0.11-O3^0.3-lactone bistrifluoroacetate			no enzymatic digestion (in the case of pepsin)	open-chain lysobactin; also recorded: β-hydroxyaspartate unit								
D-Leu-Leu-Ala(3-cyclohexyl)-Leu(OH)-Leu-D-Arg-Ile-allo-Thr-Gly-Asn(OH)-Ser					Peptide 5-11 (Leu-Arg-Ile-(allo)Thr-Gly-Asn(OH)-Ser); also recorded: Peptide 5-9 (Leu-Arg-Ile-(allo)Thr-Gly); also recorded: Peptide 10-11 (Asn(OH)-Ser); also recorded: Peptide 1-4 (Leu-Leu-PTHAla(3-cyclohexyl)*-Leu(OH))	Peptide 4-11 (Leu(OH)-Leu-Arg-Ile-(allo)Thr-Gly-Asn(OH)-Ser); also recorded: Peptide 1-3 (Leu-Leu-PTHAla(3-cyclohexyl)*); also recorded: deamidated form (1-11); also recorded: deamidated form (4-11)	Peptide 1-9 (Leu-Leu-PTHAla(3-cyclohexyl)*-Leu(OH)-Leu-Arg-Ile-(allo)Thr-Gly); also recorded: Peptide 10-11 (Asn(OH)-Ser)	fragment 1-3 (LL(3-cyclohexyl)A); also recorded: fragment 4-11	Peptide 4-11 (Leu(OH)-Leu-Arg-Ile-(allo)Thr-Gly-Asn(OH)-Ser); also recorded: Peptide 1-3 (Leu-Leu-PTHAla(3-cyclohexyl)*)	Peptide 1-2 (Leu-Leu)		
D-Leu-Leu-Phe-Leu(OH)-Leu-D-Arg-Ile-allo-Thr-Gly-Asn(OH)-Ser					Peptide 5-11 (Leu-Arg-Ile-(allo)Thr-Gly-Asn(OH)-Ser); also recorded: Peptide 5-9 (Leu-Arg-Ile-(allo)Thr-Gly); also recorded: Peptide 10-11 (Asn(OH)-Ser); also recorded: Peptide 1-4 (Leu-Leu-Phe-Leu(OH))	Peptide 4-11 (Leu(OH)-Leu-Arg-Ile-(allo)Thr-Gly-Asn(OH)-Ser); also recorded: Peptide 1-3 (Leu-Leu-Phe)	Peptide 1-9 (Leu-Leu-Phe-Leu(OH)-Leu-Arg-Ile-(allo)Thr-Gly); also recorded: Peptide 10-11 (Asn(OH)-Ser)	fragment 4-11; also recorded: fragment 1-3 (LLF)	Peptide 4-11 (Leu(OH)-Leu-Arg-Ile-(allo)Thr-Gly-Asn(OH)-Ser); also recorded: Peptide 1-3 (Leu-Leu-Phe)		Peptide 4-11 (Leu(OH)-Leu-Arg-Ile-(allo)Thr-Gly-Asn(OH)-Ser); also recorded: Peptide 5-11 (Leu-Arg-Ile-(allo)Thr-Gly-Asn(OH)-Ser)	Peptide 3-11 (Phe-Leu(OH)-Leu-Arg-Ile-(allo)Thr-Gly-Asn(OH)-Ser); also recorded: Peptide 1-2 (Leu-Leu)
